This note sets out measurements from ChEMBL document CHEMBL4627389, “Constituents of Two Dioscorea Species That Potentiate Antibiotic Activity against MRSA” (2020).

Calls of active or inactive are those of the source. The rule behind the calls is not given here.

As a reminder, the MIC is the least concentration at which growth counts as inhibited.

Experiment [1] relates to Staphylococcus aureus. Description: Antibacterial activity against Staphylococcus aureus 1199B assessed as inhibition of efflux pump by measuring increase in intracellular accumulation of ethidium bromide at 0.25 times of MIC after 30 mins by fluorescence assay. It counts as functional, organism-based.
Experiment [2] concerns Staphylococcus aureus. Description: Antibacterial activity against Staphylococcus aureus 1199B assessed as inhibition of efflux pump by measuring increase in intracellular accumulation of ethidium bromide after 30 mins by fluorescence assay. In kind it is functional, organism-based.
Experiment [3] concerns Staphylococcus aureus. Description: Potentiation of […] antibacterial activity against Staphylococcus aureus XU212 assessed as fold reduction in tetracycline MIC at 20 mg/L by broth dilution assay relative to tetracycline alone. It counts as functional. For orientation: Dilution methods test growth across graded concentrations, often in twofold steps.
Experiment [4] has as its system Staphylococcus aureus. Description: Potentiation of […] antibacterial activity against Staphylococcus aureus XU212 assessed as tetracycline MIC at 20 mg/L by broth dilution assay (reference value: […]). It counts as functional.
Experiment [5] concerns Staphylococcus aureus. Description: Potentiation of norfloxacin-induced antibacterial activity against Staphylococcus aureus 1199B assessed as fold reduction in norfloxacin MIC at 20 mg/L by broth dilution assay relative to norfloxacin alone. In kind it is functional.
Experiment [6] concerns Staphylococcus aureus. Description: Potentiation of norfloxacin-induced antibacterial activity against Staphylococcus aureus 1199B assessed as norfloxacin MIC at 20 mg/L by broth dilution assay (reference value: 32 mg/L). In kind it is functional.
The test system of experiment [7] is Staphylococcus aureus. Description: Potentiation of […] antibacterial activity against Staphylococcus aureus XU212 assessed as tetracycline MIC at 30 mg/L by broth dilution assay (reference value: […]). In kind it is functional.
Experiment [8] deals with Staphylococcus aureus. Description: Potentiation of norfloxacin-induced antibacterial activity against Staphylococcus aureus 1199B assessed as fold reduction in norfloxacin MIC at 30 mg/L by broth dilution assay relative to norfloxacin alone. In kind it is functional.
The test system of experiment [9] is Staphylococcus aureus. Description: Potentiation of norfloxacin-induced antibacterial activity against Staphylococcus aureus 1199B assessed as norfloxacin MIC at 30 mg/L by broth dilution assay (reference value: 32 mg/L). It counts as functional.
Experiment [10] has as its system Staphylococcus aureus. Description: Potentiation of norfloxacin-induced antibacterial activity against Staphylococcus aureus 1199B assessed as fold reduction in norfloxacin MIC at 64 mg/L by broth dilution assay relative to norfloxacin alone. In kind it is functional.
The test system of experiment [11] is Staphylococcus aureus. Description: Potentiation of […] antibacterial activity against Staphylococcus aureus XU212 assessed as tetracycline MIC at 64 mg/L by broth dilution assay (reference value: […]). It counts as functional.
Experiment [12] deals with Staphylococcus aureus. Description: Potentiation of norfloxacin-induced antibacterial activity against Staphylococcus aureus 1199B assessed as norfloxacin MIC at 64 mg/L by broth dilution assay (reference value: 32 mg/L). In kind it is functional.
Experiment [13] relates to Staphylococcus aureus. Description: Potentiation of […] antibacterial activity against Staphylococcus aureus XU212 assessed as fold reduction in tetracycline MIC at 64 mg/L by broth dilution assay relative to tetracycline alone. It counts as functional.
Experiment [14] has as its system Staphylococcus aureus. Description: Potentiation of […] antibacterial activity against Staphylococcus aureus XU212 assessed as tetracycline MIC at 100 mg/L by broth dilution assay (reference value: […]). It counts as functional.
The test system of experiment [15] is Staphylococcus aureus. Description: Potentiation of norfloxacin-induced antibacterial activity against Staphylococcus aureus 1199B assessed as norfloxacin MIC at 100 mg/L by broth dilution assay (reference value: 32 mg/L). It counts as functional.
In experiment [16] the test system is Staphylococcus aureus. Description: Potentiation of norfloxacin-induced antibacterial activity against Staphylococcus aureus 1199B assessed as fold reduction in norfloxacin MIC at 100 mg/L by broth dilution assay relative to norfloxacin alone. In kind it is functional.
In experiment [17] the test system is Staphylococcus aureus. Description: Potentiation of […] antibacterial activity against Staphylococcus aureus XU212 assessed as fold reduction in tetracycline MIC at 100 mg/L by broth dilution assay relative to tetracycline alone. In kind it is functional.

`COC(=O)[C@H]1[C@H]2C[C@@H]3c4[nH]c5cc(OC)ccc5c4CCN3C[C@H]2C[C@@H](OC(=O)c2cc(OC)c(OC)c(OC)c2)[C@@H]1OC` [RESERPINE]: the inhibition entry in the experiment on Staphylococcus aureus [1] was “Active”. In the experiment on Staphylococcus aureus [2], the inhibition entry is “Dose-dependent effect”. The “fold change (FC)” value with Staphylococcus aureus [3] and with Staphylococcus aureus [5] was 2 throughout. Also, the figures for the MIC in the experiment on Staphylococcus aureus [4] and with Staphylococcus aureus [6] were 64 µg/mL and 16 µg/mL, respectively.

Consider `COc1cc(CCC(=O)CC(O)CC(=O)CCc2ccc(O)c(OC)c2)ccc1O`, for which the inhibition entry in the experiment with Staphylococcus aureus [1] is “Active”. The values for the MIC with Staphylococcus aureus [7] and in the experiment with Staphylococcus aureus [9] were 128 µg/mL and 8 µg/mL, respectively. For the same compound, the “fold change (FC)” value in the experiment with Staphylococcus aureus [8] was determined as 4.

`COc1cc(CCc2ccccc2O)cc(O)c1OC`: the inhibition result in the experiment with Staphylococcus aureus [1] is “Active”. For the same compound, the “fold change (FC)” value is given as 16 with Staphylococcus aureus [10] and 2 with Staphylococcus aureus [13]. Moreover, the results for the MIC in the experiment with Staphylococcus aureus [11] and with Staphylococcus aureus [12] were 64 µg/mL and 2 µg/mL, respectively.

Consider `COc1ccc(/C=C/C(=O)OCCCCCCCCCCCCCCCCCCCCCCCCCCCCCCCC(=O)O)cc1O`, for which the MIC in the experiment with Staphylococcus aureus [14] was determined as 8 µg/mL; in the experiment on Staphylococcus aureus [15], 4 µg/mL. In addition, the “fold change (FC)” value in the experiment on Staphylococcus aureus [16] is reported as 8; in the experiment with Staphylococcus aureus [17] it was 16.

For the compound `COc1cc(CCC(=O)C[C@H](O)CC(=O)CCc2ccc(O)cc2)ccc1O`, the MIC in the experiment with Staphylococcus aureus [14] was less than 0.25 µg/mL; in the experiment with Staphylococcus aureus [15] it was 16 µg/mL. The results for the “fold change (FC)” value in the experiment with Staphylococcus aureus [16] and in the experiment with Staphylococcus aureus [17] were 2 and 512, respectively.
